The nature of one series: in vitro. The following applies: human, Caco-2, pH 7.4. The procedure:
(§1) Caco-2 cells were cultured on 12-well Transwell polycarbonate membrane inserts with a 0.4 μm pore size (Corning Incorporated, Kennebunk, ME) at 37 °C and 5% CO2 for 21–24 days prior to the experiment as described in Hubatsch et al. The culture medium (DMEM, 10% FBS, 1% MEM nonessential amino acids, 100 U/mL penicillin–streptomycin) was changed every second day. Transepithelial electrical resistance (TEER) was measured before and after the permeability assay with a Millicell-ERS electrode (Millipore, Bedford, MA) attached to an epithelial volt ohm meter (EVOM, World Precision Instruments, Sarasota, FL). The permeability assay was performed according to a previously published protocol. […] Sulfasalazine is a substrate of BCRP and OATP2B1. , The DMSO concentration was 0.45–1.5%. Before the experiment, inserts were washed and preincubated in the transport buffer for 20 min shaking at 37 °C. Sulfasalazine and LY permeability was measured in the apical to basolateral direction at five time points (20, 40, 60, 90, and 120 min) and, additionally, in the basolateral to apical direction to calculate the efflux ratio. […] […] LY (250 μM) was added on the donor side of all inserts to measure the integrity of the cell monolayer. Before analysis, samples were centrifuged at 2755g for 30 min, and donor solution and mass balance samples were diluted 1:100. LY fluorescence was measured with a Varioskan LUX microplate reader (Thermo Fisher Scientific) at 430 nm excitation and 538 nm emission. Sulfasalazine was analyzed with ultra-performance liquid chromatography (UPLC) using a Syncronis C18 column (1.7 μm particle size, 50 × 2.1 mm + 0.2 μm Waters online filter) (Thermo Fisher Scientific) coupled with Waters Acquity UPLC interfaced with a PDA detector both controlled by the Waters Empower software version 3. The UPLC was operated in gradient mode at 354 nm. Solvents were 0.015 M phosphate buffer pH 2 (A), acetonitrile (B), 1:1 acetonitrile/methanol (strong needle wash), and 20% acetonitrile (weak needle wash). Column temperature was 30 °C, injection volume was 10 μL, retention time was 1.46 min, and flow rate was 0.5 mL/min. The gradient was 25% B → 70% B (0–3 min), 70% B → 25% B (3.00–3.01 min), and 25% B (3.01–4 min). The data were collected for the first 180 s of each UPLC run.
(§2) In the Caco-2 permeability assay, the apparent permeability (P app) of sulfasalazine was calculated using the following equation: Papp=(dQ/dt)(1/A×C0) where dQ/dt is the rate of permeation across the cells (nmol/min), A is the surface area of the filter (1.12 cm^2), and C 0 is the initial concentration in the donor chamber (μM). The efflux ratio of sulfasalazine was calculated by dividing the P app in the basolateral to the apical direction by the P app in the apical to basolateral direction. The TEER for each cell insert was calculated before and after the experiment by multiplying the mean resistance of three measurements by the surface area of the filter (1.12 cm^2). Mass balance was calculated by dividing the […]. All experiments were done in triplicate wells, and the IC50 and Caco-2 permeability assays were repeated three times.

Series [1] addresses T1, P-gp (Homo sapiens, UniProt P08183). Kind of series: Vesicular transport assay, P-gp (N-methyl-quinidine substrate). The following applies: food additive 50 μM; N-methyl-quinidine 2 μM; n = 1.
Protocol: (§3) Transport inhibition by 22 food additives was tested with Spodoptera frugiperda (Sf9) derived crude membrane vesicles expressing BCRP, MRP2, or P-gp produced in-house. […] Vesicles (50 μg total protein/well) were diluted in an assay buffer (40 mM MOPS–Tris pH 7.0, 60 mM KCl, and 6 mM MgCl2) with the substrate, and food additives (final concentration of 50 μM) in DMSO were added to the mixture. After preincubation, either the assay buffer or Mg-ATP solution (final concentration 4 mM) was added to the plate to start the reaction. The plate was incubated at 37 °C, and the reaction was stopped with an ice-cold washing mixture (40 mM MOPS-Tris pH 7.0 and 70 mM KCl). Samples were moved to a MultiScreenHTS-FB Plate Glass fiber 1.0 μm/0.65 μm Durapore filter plate (Millipore, USA), and the wells were washed five times with the ice-cold washing mixture. For BCRP and MRP2, the fluorescent substrate was eluted from the filters with 100 μL 0.1 M NaOH. For LY samples, an equal volume of 0.1 M HCl was added to neutralize the samples before fluorescence measurement. The amount of the substrate accumulated into the vesicles was measured by fluorescent detection using a Varioskan LUX microplate reader (Thermo Fisher Scientific, Finland) (Table ). The accumulation into the P-gp vesicles was measured with high-performance liquid chromatography (HPLC) (Agilent 110 series, Agilent Technologies, USA) after lysis and elution of the vesicle contents with 100 μL 3:1 methanol/water + 0.1% formic acid. The column used was a Poroshell 120 EC-C18 with a size of 4.6 × 100 mm and 2.7 μm particle size. Eluent A was 0.1% formic acid, and eluent B was acetonitrile. The flow rate of eluent was 1 mL/min, and the injection volume of samples was 10 μL. […] The retention time for NMQ was around 2.5 min.
(§4) For the efflux transporters, the relative transport was calculated as relativetransport(%ofcontrol)=transportinh,ATP−transportinh,noATP/transportDMSO,ATP−transportDMSO,noATP×100% where transportinh,ATP and transportinh,no ATP are the transport rates in the presence of food additives with or without ATP, respectively, and transportDMSO,ATP and transportDMSO,no ATP are the corresponding transport rates in the presence of the vehicle (DMSO) with or without ATP.
(§5) The half-maximal inhibitory concentrations (IC50) were calculated with GraphPad Prism version 9.0.2 (GraphPad Software, San Diego, CA) using nonlinear regression that fits the data to a four-parameter dose–response curve: relativetransport=minimum+maximum−minimum/1+([I]/IC50)^h where minimum and maximum describe the plateaus of minimal and maximal relative transport (%), [I] is the concentration of inhibitor, and h is the Hill slope, which describes the steepness of the slope.
Series [2] deals with T2, OATP2B1 (Homo sapiens, UniProt O94956).
T2 construct: expressed in transfected cells; host or cells: HEK293 cells (ATCC) transduced with recombinant OATP2B1 baculovirus
T2 sequence (O94956 1-709): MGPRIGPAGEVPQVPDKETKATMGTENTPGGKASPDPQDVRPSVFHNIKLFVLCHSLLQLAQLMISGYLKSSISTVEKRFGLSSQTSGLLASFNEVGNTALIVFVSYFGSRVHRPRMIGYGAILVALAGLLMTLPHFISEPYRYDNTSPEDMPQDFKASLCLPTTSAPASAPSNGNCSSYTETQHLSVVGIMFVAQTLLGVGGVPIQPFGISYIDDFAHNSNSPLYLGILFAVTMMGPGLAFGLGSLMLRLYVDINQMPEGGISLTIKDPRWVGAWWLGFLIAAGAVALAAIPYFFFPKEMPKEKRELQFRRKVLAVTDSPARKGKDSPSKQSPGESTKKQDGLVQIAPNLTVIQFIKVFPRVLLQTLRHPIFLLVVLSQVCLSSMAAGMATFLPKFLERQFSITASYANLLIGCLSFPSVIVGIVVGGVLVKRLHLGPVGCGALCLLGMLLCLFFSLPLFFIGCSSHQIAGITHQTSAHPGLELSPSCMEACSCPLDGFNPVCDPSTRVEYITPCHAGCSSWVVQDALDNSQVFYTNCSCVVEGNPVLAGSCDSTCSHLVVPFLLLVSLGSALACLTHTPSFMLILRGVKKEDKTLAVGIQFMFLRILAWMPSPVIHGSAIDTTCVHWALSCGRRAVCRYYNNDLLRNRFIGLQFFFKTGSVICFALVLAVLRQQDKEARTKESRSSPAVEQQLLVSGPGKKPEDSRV
The settings on record: cited from earlier work; for IC50 / Ki: previously characterized inhibitors, ref previous studies; for Ki: read-out: K i, OATP2B1.

In series [3] the target is T3, BCRP (Homo sapiens, UniProt Q9UNQ0).
T3 sequence (Q9UNQ0 1-655): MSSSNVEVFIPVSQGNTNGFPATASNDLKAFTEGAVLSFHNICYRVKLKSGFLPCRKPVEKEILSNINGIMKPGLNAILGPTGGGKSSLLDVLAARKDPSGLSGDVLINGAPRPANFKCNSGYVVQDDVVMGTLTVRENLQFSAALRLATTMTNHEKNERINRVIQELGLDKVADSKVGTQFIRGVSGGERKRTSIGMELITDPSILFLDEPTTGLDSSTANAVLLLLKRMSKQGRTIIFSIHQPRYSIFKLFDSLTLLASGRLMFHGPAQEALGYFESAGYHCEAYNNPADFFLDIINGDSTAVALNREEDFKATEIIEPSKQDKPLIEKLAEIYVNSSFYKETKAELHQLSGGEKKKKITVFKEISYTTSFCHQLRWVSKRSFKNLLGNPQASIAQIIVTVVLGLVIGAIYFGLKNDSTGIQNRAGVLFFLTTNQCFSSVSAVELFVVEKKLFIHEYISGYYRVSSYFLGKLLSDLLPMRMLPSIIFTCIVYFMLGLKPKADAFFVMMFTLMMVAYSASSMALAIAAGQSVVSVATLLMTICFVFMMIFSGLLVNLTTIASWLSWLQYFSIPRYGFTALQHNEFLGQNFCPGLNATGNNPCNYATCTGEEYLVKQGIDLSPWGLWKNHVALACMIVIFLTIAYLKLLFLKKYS
The following applies: cited from earlier work; for IC50: read-out: IC50 (95% CI), BCRP, previously characterized inhibitors, ref previous studies.

Series [4] addresses T2, OATP2B1. Kind of series: HEK293 uptake assay, OATP2B1 (5-carboxyfluorescein substrate). Type of series: cell-based. The following applies: food additive 50 μM. The procedure: The inhibition of OATP2B1 was studied using a HEK293 cell-based uptake assay. HEK293 cells were cultured in DMEM supplemented with 10% FBS at 37 °C and 5% CO2 and seeded at 22,500 cells/well on 96-well plates coated with 0.1 mg/mL poly-D-lysine. After 24 h, the medium was replaced with a transduction mix (DMEM with 10% FBS, 5 mM sodium butyrate, and recombinant OATP2B1 or enhanced yellow fluorescent protein [eYFP, negative control] baculoviruses). The baculoviruses were produced as previously described. The uptake assay was performed after approximately 48 h. […] Test solutions also contained the substrate. Cells were washed with warm transport buffer and preincubated at 37 °C. Preincubation solutions were replaced with test solutions and incubated at 37 °C with shaking at 250 rpm. Transport was terminated by aspirating the test solution and washing the wells with an ice-cold transport buffer (150 μL) three times. Wells were left to dry, and cells were lysed with 0.1 M NaOH. […] Total protein concentration was measured from six random wells with a Pierce Coomassie (Bradford) Assay kit (Thermo Fisher Scientific) to ensure a similar protein concentration in the OATP2B1 and eYFP wells.

Series [5] concerns the target T1, P-gp. The arrangement: made in house; host or cells: Spodoptera frugiperda Sf9 cells, crude membrane vesicles. The following applies: ref Kulkarni et al.; cited from earlier work.
The target in series [6] is T4, MRP2 (Homo sapiens, UniProt Q92887).
T4 construct: made in house; host or cells: Spodoptera frugiperda Sf9 cells, crude membrane vesicles
The series is described as follows: Vesicular transport assay, MRP2 (CDCF substrate). Type of series: biochemical.
Protocol: Transport inhibition by 22 food additives was tested with Spodoptera frugiperda (Sf9) derived crude membrane vesicles expressing BCRP, MRP2, or P-gp produced in-house. […] Vesicles (50 μg total protein/well) were diluted in an assay buffer (40 mM MOPS–Tris pH 7.0, 60 mM KCl, and 6 mM MgCl2) with the substrate, and food additives (final concentration of 50 μM) in DMSO were added to the mixture. After preincubation, either the assay buffer or Mg-ATP solution (final concentration 4 mM) was added to the plate to start the reaction. The plate was incubated at 37 °C, and the reaction was stopped with an ice-cold washing mixture (40 mM MOPS-Tris pH 7.0 and 70 mM KCl). Samples were moved to a MultiScreenHTS-FB Plate Glass fiber 1.0 μm/0.65 μm Durapore filter plate (Millipore, USA), and the wells were washed five times with the ice-cold washing mixture. For BCRP and MRP2, the fluorescent substrate was eluted from the filters with 100 μL 0.1 M NaOH. […] The amount of the substrate accumulated into the vesicles was measured by fluorescent detection using a Varioskan LUX microplate reader (Thermo Fisher Scientific, Finland) (Table ).
as §4, §5

Series [7] deals with T4, MRP2. Further details: method as in previous studies. The settings on record: previously characterized inhibitors; ref previous studies; read-out: IC50 (95% CI), MRP2; cited from earlier work.
Another series relates to Caco-2 cells. Kind of series: in vitro. The following applies: for effect on sulfasalazine permeability (P app): Caco-2. As for the experimental part:
as §1, §2
(Caco-2 cells form a polarised layer with tight junctions and transporters.)

Series [8] deals with OATP2B1. The arrangement: method as in Zou et al. The settings on record: 25 mg/kg; P-gp-deficient mice; ref Zou et al.; cited from earlier work.
Series [9] concerns the target T3, BCRP. The series is described as follows: Vesicular transport assay, BCRP (Lucifer yellow substrate). Type of series: biochemical. Further details: made in house; host or cells: Spodoptera frugiperda Sf9 cells, crude membrane vesicles. The settings on record: Sf9-derived crude membrane vesicles expressing BCRP, pH 7, probe Lucifer yellow 50 μM, food additive 50 μM, n = 1, read-out: inhibition of BCRP substrate accumulation.
Protocol: as §3, §4, §5

Where [10] appears, read: pH 5.5, read-out: IC50, OATP2B1, pH 5.5.
The mark [11] stands for this setting: pH 7.4, read-out: IC50, OATP2B1, pH 7.4.

Usually Papp A→B stands for how fast a substance crosses the layer from the apical side. The low end stands for poor permeation, the high end for ready permeation. The term Papp B→A denotes the apparent permeability from the basolateral to the apical side of a cell layer. A word on the efflux ratio: it is a quotient of directional permeabilities that is used to spot active efflux. In general, IC50 refers to the concentration that gives 50% inhibition. What is called inhibition is the drop in the measured response relative to a control, in per cent.

“Also recorded” adds a separate entry of the source. Like-named read-outs stand apart in the source and are kept apart here.

T4 sequence (Q92887 whole entry): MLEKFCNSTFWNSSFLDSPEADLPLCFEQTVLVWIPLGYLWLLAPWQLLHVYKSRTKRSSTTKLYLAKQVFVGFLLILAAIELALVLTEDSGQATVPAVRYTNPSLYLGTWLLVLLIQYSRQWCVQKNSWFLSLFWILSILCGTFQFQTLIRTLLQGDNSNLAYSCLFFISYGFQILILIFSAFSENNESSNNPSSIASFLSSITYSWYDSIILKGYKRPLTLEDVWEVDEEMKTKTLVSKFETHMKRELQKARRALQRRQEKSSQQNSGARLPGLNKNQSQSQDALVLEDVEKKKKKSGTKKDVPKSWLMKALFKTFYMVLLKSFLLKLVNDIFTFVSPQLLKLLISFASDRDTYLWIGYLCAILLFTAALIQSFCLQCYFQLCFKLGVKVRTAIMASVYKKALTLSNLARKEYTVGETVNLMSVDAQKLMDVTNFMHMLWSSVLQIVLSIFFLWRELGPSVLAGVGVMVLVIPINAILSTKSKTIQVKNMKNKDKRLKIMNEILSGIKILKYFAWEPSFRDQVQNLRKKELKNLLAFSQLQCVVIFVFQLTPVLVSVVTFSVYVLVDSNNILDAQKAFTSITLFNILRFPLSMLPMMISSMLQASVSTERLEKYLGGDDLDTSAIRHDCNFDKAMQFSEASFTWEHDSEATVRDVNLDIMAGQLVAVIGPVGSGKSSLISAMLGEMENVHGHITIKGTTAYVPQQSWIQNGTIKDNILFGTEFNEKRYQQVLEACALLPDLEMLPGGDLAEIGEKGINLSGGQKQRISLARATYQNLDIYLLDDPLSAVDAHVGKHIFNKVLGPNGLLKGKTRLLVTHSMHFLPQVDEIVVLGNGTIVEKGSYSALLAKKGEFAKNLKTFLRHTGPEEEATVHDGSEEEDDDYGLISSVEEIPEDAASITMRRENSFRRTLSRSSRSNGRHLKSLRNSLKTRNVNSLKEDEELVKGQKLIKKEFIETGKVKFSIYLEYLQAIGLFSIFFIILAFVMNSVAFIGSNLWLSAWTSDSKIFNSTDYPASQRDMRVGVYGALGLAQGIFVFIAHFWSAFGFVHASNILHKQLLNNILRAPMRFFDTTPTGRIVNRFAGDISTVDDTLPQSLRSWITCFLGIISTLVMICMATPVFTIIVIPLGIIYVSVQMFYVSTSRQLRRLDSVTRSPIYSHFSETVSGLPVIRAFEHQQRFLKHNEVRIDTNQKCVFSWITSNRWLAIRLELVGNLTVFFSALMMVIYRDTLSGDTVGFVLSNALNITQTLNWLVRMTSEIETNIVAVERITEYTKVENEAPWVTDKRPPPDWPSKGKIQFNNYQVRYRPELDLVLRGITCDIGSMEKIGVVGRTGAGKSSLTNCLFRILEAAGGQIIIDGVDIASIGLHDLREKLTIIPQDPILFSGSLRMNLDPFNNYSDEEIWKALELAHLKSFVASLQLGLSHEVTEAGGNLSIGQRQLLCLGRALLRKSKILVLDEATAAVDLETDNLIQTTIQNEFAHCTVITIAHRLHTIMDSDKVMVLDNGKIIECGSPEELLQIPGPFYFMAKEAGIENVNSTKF
T1 sequence (P08183 whole entry): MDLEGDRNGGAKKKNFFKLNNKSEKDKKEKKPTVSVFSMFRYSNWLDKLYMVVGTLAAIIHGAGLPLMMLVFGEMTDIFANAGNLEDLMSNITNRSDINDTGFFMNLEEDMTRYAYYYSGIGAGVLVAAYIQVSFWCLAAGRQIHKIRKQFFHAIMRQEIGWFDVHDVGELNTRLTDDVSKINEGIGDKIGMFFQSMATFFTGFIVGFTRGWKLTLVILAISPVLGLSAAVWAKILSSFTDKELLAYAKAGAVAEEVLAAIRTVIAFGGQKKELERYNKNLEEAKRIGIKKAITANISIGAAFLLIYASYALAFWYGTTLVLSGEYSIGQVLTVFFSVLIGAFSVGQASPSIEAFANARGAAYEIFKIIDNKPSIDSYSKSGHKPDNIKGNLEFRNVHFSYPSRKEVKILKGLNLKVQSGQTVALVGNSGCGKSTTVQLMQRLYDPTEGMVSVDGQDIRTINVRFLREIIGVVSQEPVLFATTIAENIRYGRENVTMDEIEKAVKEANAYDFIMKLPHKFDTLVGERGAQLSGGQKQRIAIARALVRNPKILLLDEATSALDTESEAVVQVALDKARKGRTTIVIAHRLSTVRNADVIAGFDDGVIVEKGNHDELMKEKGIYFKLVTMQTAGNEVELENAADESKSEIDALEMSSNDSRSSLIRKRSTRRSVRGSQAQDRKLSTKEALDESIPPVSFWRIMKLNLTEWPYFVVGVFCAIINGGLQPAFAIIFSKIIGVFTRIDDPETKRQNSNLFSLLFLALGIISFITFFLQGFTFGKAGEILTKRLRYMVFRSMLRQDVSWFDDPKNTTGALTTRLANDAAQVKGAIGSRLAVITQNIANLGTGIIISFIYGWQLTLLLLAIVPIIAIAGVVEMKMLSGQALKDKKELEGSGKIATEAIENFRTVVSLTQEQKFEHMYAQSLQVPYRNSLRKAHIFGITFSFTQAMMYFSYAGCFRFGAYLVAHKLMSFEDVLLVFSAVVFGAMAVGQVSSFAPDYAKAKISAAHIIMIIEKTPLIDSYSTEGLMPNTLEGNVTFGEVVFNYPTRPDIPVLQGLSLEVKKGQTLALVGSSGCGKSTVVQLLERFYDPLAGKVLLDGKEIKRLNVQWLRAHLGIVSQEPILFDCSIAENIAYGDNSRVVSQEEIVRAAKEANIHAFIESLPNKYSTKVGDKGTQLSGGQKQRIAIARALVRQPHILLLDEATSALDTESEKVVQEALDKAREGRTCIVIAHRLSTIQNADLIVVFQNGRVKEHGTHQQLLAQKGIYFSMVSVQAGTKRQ

`O=C(O)c1cc(/N=N/c2ccc(S(=O)(=O)Nc3ccccn3)cc2)ccc1O` [sulfasalazine, reference compound]: in “in vitro”, the Papp A→B at 120 min, 500 μM is no more than 0.1 ×10⁻⁶ cm/s; the Papp B→A at 120 min, 500 μM was roughly 6.5 ×10⁻⁶ cm/s; the efflux ratio at 120 min, 500 μM was greater than 70.
`Cc1cc(C(C)(C)C)c(O)c(C(C)(C)C)c1` [butylated hydroxytoluene]: on P-gp [1], the “inhibition of P-gp substrate accumulation” value is listed as “None”. At OATP2B1 [2] (ref Kulkarni et al.), the OATP2B1 inhibition entry was “did not inhibit; also recorded: OATP2B1-stimulating effect”. Also, the BCRP inhibition entry on BCRP [3] (ref Kulkarni et al.) is “did not inhibit”. Moreover, the “inhibition of OATP2B1-mediated uptake” value against OATP2B1 [4] (5-carboxyfluorescein 2 μM, HEK293 cells, n = 1) is on record as “OATP2B1-stimulating effect”. Further, at P-gp [5], the P-gp inhibition entry is recorded as “did not inhibit”. Moreover, the IC50 on MRP2 [6] (CDCF 5 μM, membrane vesicles, n = 3, read-out: IC50 (95% CI), MRP2) was 49 µM. Moreover, the inhibition at 50 μM on MRP2 [6] (Sf9-derived crude membrane vesicles expressing MRP2, pH 7, probe CDCF 5 μM, food additive 50 μM, n = 1, read-out: inhibition of MRP2 substrate accumulation) is no less than 50%.
As for `COc1cc(S(=O)(=O)[O-])c(C)cc1N=Nc1c(O)ccc2cc(S(=O)(=O)[O-])ccc12.[Na+].[Na+]` [allura red AC], the IC50 at MRP2 [7] is 20 µM; on OATP2B1 [2] (setting [10]), 1.6 µM; on OATP2B1 [2] (setting [11]), 0.8 µM. Moreover, the Ki on OATP2B1 [2] was 2.59 µM. Further, the “effect on sulfasalazine permeability (P app)” value (from here on “effect … (P app)”) with Caco-2 cells is reported as “None of the selected food additives showed any effect”. For the same compound, in the series with OATP2B1 [8], the “effect on fexofenadine plasma levels (OATP2B1 inhibition)” value is recorded as “decreases fexofenadine plasma levels”.
With `O=S(=O)([O-])c1ccc(N=Nc2cc(S(=O)(=O)[O-])c3ccccc3c2O)c2ccccc12.[Na+].[Na+]` [carmoisine], the IC50 is 29 µM at MRP2 [7], 2.9 µM at OATP2B1 [2] (setting [10]), 9.7 µM on OATP2B1 [2] (setting [11]) and 5.38 µM at BCRP [3]. Moreover, in the series on Caco-2 cells, the “effect … (P app)” value was “None of the selected food additives showed any effect”. In addition, the “sulfasalazine P app fold change” value in the series with Caco-2 cells (food additive 200 μM on both sides of the cell monolayer) is no more than 2.
In the case of `CCN(Cc1cccc(S(=O)(=O)[O-])c1)c1ccc(C(=C2C=CC(=[N+](CC)Cc3cccc(S(=O)(=O)[O-])c3)C=C2)c2ccccc2S(=O)(=O)[O-])cc1.[Na+].[Na+]` [brilliant blue FCF], the IC50 at MRP2 [7] is 3.22 µM; on OATP2B1 [2] (setting [10]), 18.4 µM; on BCRP [3] it was 1.97 µM. Further, on OATP2B1 [2], the Ki is 13 µM. For the same compound, in the series with Caco-2 cells, the “effect … (P app)” value is listed as “None of the selected food additives showed any effect”.
Take `CCCCCCCCOC(=O)c1cc(O)c(O)c(O)c1` [octyl gallate]: the IC50 on MRP2 [7] is 19.2 µM; at BCRP [3], 10 µM. Besides, on P-gp [1], the “inhibition of P-gp substrate accumulation” value is reported as “did not inhibit”. For the same compound, the inhibition at 50 μM at BCRP [9] was no less than 50%; at OATP2B1 [4] (human, HEK293 cells transduced with recombinant OATP2B1 baculovirus, pH 6, probe 5-carboxyfluorescein 2 μM, n = 1, read-out: inhibition of OATP2B1-mediated uptake), no less than 50%. Besides, on MRP2 [6] (food additive 50 μM, CDCF 5 μM, n = 1), the “inhibition of MRP2 substrate accumulation” value is reported as “did not inhibit”.

(Values after paper PMC12406256, “Food Additives Inhibit Intestinal Drug Transporters but Have Limited Effect on In Vitro Drug Permeability” (Molecular Pharmaceutics, 2025).)
